Entries after “also recorded” stand apart in the source; their conditions may differ. Each block holds one compound with its values, some of them ahead of it.
Tests used:
[1] = system: HK853 D411N; assay: Thermal shift assay; conditions: D411N alone Tm 67 °C; inhibitor 1 mM; no significant change
[2] = target: HSP90α (Homo sapiens, UniProt P07900); assay: HSP90 inhibition assay, fluorescence polarization Hsp90α kit; format: binding
[3] = system: WT HK853; assay: Thermal shift assay; conditions: WT HK853 alone Tm = 70 °C; inhibitor 1 mM
[4] = target: HK853 (Thermotoga maritima, UniProt Q9WZV7); assay: Inhibition of HK853 activity, BODIPY-ATPγS competition, in-gel fluorescence; format: biochemical; conditions: for IC50 values (μM) (95% confidence interval), n = 2: HK853 inhibitory activity, value (95% confidence interval)

Compound: CCCN(CCC)c1[nH]cnc2ncnc1-2 [Compound 1, 6-N,N-dipropyl adenine]
- change in the Tm value of HK853 D411N [1]: ≤ 2 °C

- IC50 [2]: ≤ 1250 µM
Compound: c1ccc(CCNc2ncnc3[nH]cnc23)cc1 [Compound 3, 6-N-phenylethyladenine]

- IC50 [2]: ≤ 1250 µM
Compound: CC1CC(Nc2ncnc3nc[nH]c23)CC(C)(C)C1 (stereo not drawn) [Compound 4, 6-N,N-(3,3,5-trimethylcyclohexyl) adenine]

Compound: Nc1ncnc2c1ncn2[C@@H]1O[C@H](COP(=O)(O)OP(=O)(O)O)[C@@H](O)[C@H]1O [Compound 6, ADP, reference compound]
- change in the Tm value of HK853 D411N [1]: ≤ 2 °C
- Tm of WT HK853 in the presence of compound [3]: 80 °C

Compound: OC[C@H]1O[C@@H](n2cnc3c(NCCc4ccccc4)ncnc32)[C@H](O)[C@@H]1O [Compound 10, 6-N-phenylethyladenosine]
- HK853 inhibition, result in words [4]: negligible activity
- fold decreased potency ([4]; HK853, riboside 10 versus lead 3): > 20 fold

- HK853 inhibition, result in words [4]: negligible activity
Compound: Nc1nc(N)c2nc[nH]c2n1 [Compound 13, 2-aminoadenine]

- HK853 inhibition, result in words [4]: negligible activity
Compound: Nc1nc(N)c2ncn([C@@H]3O[C@H](CO)[C@@H](O)[C@H]3O)c2n1 [Compound 14, aminoadenosine]

- HK853 inhibition, result in words [4]: negligible activity
Compound: Nc1nc(Cl)c2ncn([C@@H]3O[C@H](CO)[C@@H](O)[C@H]3O)c2n1 [Compound 20, 2-amino,6-chloropurine ribose]

Compound: Nc1nc2ncnc-2c[nH]1 [Compound 21, 2-aminopurine]
- HK853 inhibition, result in words [4]: low affinity; also recorded: negligible activity

Compound: c1ccc(Nc2ncnc3[nH]cnc23)cc1 [Compound 22, 6-anilinopurine]
- fold superior potency compared to 3 ([4]; HK853): ~20 fold
- fold superior potency compared to 9 ([4]; HK853): ~60 fold

Compound: OC[C@H]1O[C@@H](n2cnc3c(Nc4ccccc4)ncnc32)[C@H](O)[C@@H]1O [Compound 23, 6-anilinopurine ribose]
- HK853 inhibition, result in words [4]: failed to inhibit
- IC50 values (μM) (95% confidence interval), n = 2 [4]: No Inhibition

- HK853 inhibition, result in words [4]: failed to show any activity
- IC50 values (μM) (95% confidence interval), n = 2 [4]: No Inhibition
Compound: Cn1cnc2ncnc(N)c21 [Compound 26, 7-N-methyladenine]

Compound: Cn1cnc2nc(Cl)nc(N)c21 [Compound 28, 2-chloro,7-N-methyladenine]
- HK853 inhibition, result in words [4]: inactive
- IC50 values (μM) (95% confidence interval), n = 2 [4]: No Inhibition

- HK853 inhibition, result in words [4]: minimal activity
Compound: Nc1ncnc2[nH]nnc12 [Compound 30, 8-azadenine]

Compound: Nc1nc2[nH]cnc2c(=O)[nH]1 [Guanine, reference compound]
- HK853 inhibition, result in words [4]: neither guanine or guanosine inhibited HK853

Compound: Nc1nc2c(ncn2[C@@H]2O[C@H](CO)[C@@H](O)[C@H]2O)c(=O)[nH]1 [Guanosine, reference compound]
- HK853 inhibition, result in words [4]: neither guanine or guanosine inhibited HK853
- IC50 values (μM) (95% confidence interval), n = 2 [4]: No Inhibition

- IC50 values (μM) (95% confidence interval), n = 2 [4]: No Inhibition
Compound: O=c1[nH]cnc2c1ncn2[C@@H]1O[C@H](CO)[C@@H](O)[C@H]1O [Inosine, reference compound]

Reference: paper PMC5743200 (Journal of medicinal chemistry, 2017)
